These results are taken from patent publication US12226476B2, “Helper epitope peptide and application thereof” (CHINA PHARMACEUTICAL UNIVERSITY, priority 2018, dated 2025).

What all share (format): in vivo
For one test, the system named is B epitope SEQ ID NO: 43. Briefly: Antibody titer in serum of immunized mice, indirect ELISA. As to conditions: FIG. 23; compared with the B epitope SEQ ID NO: 43 group and the B epitope SEQ ID NO: 43-PADRE group; mice immunized subcutaneously, 50 μg, Freund's adjuvant. Here is the method: (§1) The protocol is as follows: • (1) The helper epitope was connected to individual antigens or antigen epitope with the linking peptide to construct multiple fusion antigens. The sequence of the linking peptide is GPSL (i.e. Gly-Pro-Ser-Leu) (SEQ ID NO:51). • (2) The fusion antigens from (1) were emulsified adequately with complete Freund's adjuvant of the same volume. Then to immunize mice via subcutaneous injection with the emulsion at the dose of 50 μg per mouse. The strains of experimental mice including C57, Fvb and Balb/C. After 7 days and 14 days of first immunization, the fusion antigens from (1) were emulsified adequately with incomplete Freund's adjuvant of the same volume and then to immunize mice via subcutaneous injection with the emulsion at the dose of 50 μg per mouse. • (3) There are two detection methods. […] Then the antibody titer is detected by indirect ELISA. […] PBMC (peripheral blood mononuclear cells) are isolated, and the CTL-mediated cytotoxicity is detected by LDH (lactate dehydrogenase) kit. […]
(§2) Method 1: The whole blood was collected every week after immunization and centrifugated at 6000 rpm for 20 min to obtain the serum for a total of 4 weeks. Antibody titers were detected by indirect ELISA as follows: • (1) Coating: the existing antigen or antigen epitope was diluted to 5 μg/mL with coating solution. […]

Another test deals with Aβ protein-42. The test is described as above. The note with it: FIG. 24; compared with the Aβ protein-42 group and the Aβ protein-PADRE group; mice immunized subcutaneously, 50 μg, Freund's adjuvant. The protocol: as §1, §2
Another test concerns target cells. Nature of the test: CTL-mediated cytotoxicity of PBMC from spleen of immunized mice, LDH kit. As to conditions: one week after last immunization. Here is the method: The protocol is as follows: • (1) The helper epitope was connected to individual antigens or antigen epitope with the linking peptide to construct multiple fusion antigens. The sequence of the linking peptide is GPSL (i.e. Gly-Pro-Ser-Leu) (SEQ ID NO:51). • (2) The fusion antigens from (1) were emulsified adequately with complete Freund's adjuvant of the same volume. Then to immunize mice via subcutaneous injection with the emulsion at the dose of 50 μg per mouse. The strains of experimental mice including C57, Fvb and Balb/C. After 7 days and 14 days of first immunization, the fusion antigens from (1) were emulsified adequately with incomplete Freund's adjuvant of the same volume and then to immunize mice via subcutaneous injection with the emulsion at the dose of 50 μg per mouse. • (3) There are two detection methods. One is to obtain the orbital blood of immunized mice on 7, 14, 21 and 28 day respectively, centrifuge the whole blood to get the serum. Then the antibody titer is detected by indirect ELISA. The other one is: one week after the last immunization, the mice are killed to get the spleen. PBMC (peripheral blood mononuclear cells) are isolated, and the CTL-mediated cytotoxicity is detected by LDH (lactate dehydrogenase) kit.
The first step was to construct the fusion antigen. […]
Method 2: one week after last immunization, mice were sacrificed, and spleen was taken; then PBMC (peripheral blood mononuclear cells) were isolated, and the CTL-mediated cytotoxicity was detected by LDH (lactate dehydrogenase) kit. • (1) Setting control: The control group was divided into effector cell spontaneous release group, experimental group, target cell spontaneous release group, target cell maximum release group, volume correction control group and background control group; • (2) The cells were centrifuged at 250 g for 4 minutes to make the effector cells fully contact with the target cells; • (3) The detection plate was incubated with 5% CO2 at 37° C. for 4 hours; 10 μL of Lysis buffer was added to every 100 μL medium (10×) in the target cell maximum release group. […]

Non-standard residues stand in square brackets, D forms with d. No end group written: not given here. Phe(4-NO2) = N[C@@H](Cc1ccc([N+](=O)[O-])cc1)C(=O)O

Take “FLPESFDGDPASNTAPLQPEGPSLAKFXAAWTLKAAA (FLPESFDGDPASNTAPLQPEGPSLAKF[Phe(4-NO2)]AAWTLKAAA) [B epitope+3 pPhe-PADRE]”: the antibody titers entry in the test with B epitope SEQ ID NO: 43 is recorded as “significant increase”.

“LVFFAEDVGSNKGAIIGLMVGGVVIAGPSLAKFVAXWTLKAAA (LVFFAEDVGSNKGAIIGLMVGGVVIAGPSLAKFVA[Phe(4-NO2)]WTLKAAA) [A-beta protein-6pPhe-PADRE]”: the antibody titers entry with Aβ protein-42 is “significant increase”.

Regarding “TGYLYISAGPSLAXFVAAWTLKAAA (TGYLYISAGPSLA[Phe(4-NO2)]FVAAWTLKAAA) [epitope 2+2p-PADRE]”, the CTL-mediated cytotoxicity entry in the test with target cells (FIG. 21, compared with the epitope SEQ ID NO:41 group and the epitope SEQ ID NO: 41-PADre group) is “significantly enhanced”.

In the case of “VLDNGDPLGPSLTGYLYISAGPSLAKXVAAWTLKAAA (VLDNGDPLGPSLTGYLYISAGPSLAK[Phe(4-NO2)]VAAWTLKAAA) [epitope 3+3p-PADRE]”, in the test with target cells (FIG. 22, compared with the epitope SEQ ID NO:42 group and the epitope SEQ ID NO: 42-PADre group), the CTL-mediated cytotoxicity result was “significantly enhanced”.

For “VLDNGDPLGPSLXKFVAAWTLKAAA (VLDNGDPLGPSL[Phe(4-NO2)]KFVAAWTLKAAA) [epitope 1+1p-PADRE]”, in the test on target cells (FIG. 20, compared with the epitope SEQ ID NO:40 group and the epitope SEQ ID NO: 40-PADre group), the CTL-mediated cytotoxicity result is “significantly enhanced”.
